This passage reports IC50 results from patent US20240075108A1, “HEPATOCELLULAR CARCINOMA TREATMENTS, PROPHYLACTIC THERAPIES, AND COMPOSITIONS FOR USE THEREWITH” (REPAIR BIOTECHNOLOGIES, INC., priority 2020, published 2024).

What is called IC50 is the midpoint of a concentration-inhibition curve.

One assay has as its system CDP-Hep3B cells. The experiment in a line: MTT cell viability assay with sorafenib, CDP-Hep3B cells. In kind it is cell-based. The settings on record: Homo sapiens, 12000 cells/well, 48 hours, n=3 independent experiments, read-out: calculated IC50 (cell viability). How it is done:
(§1) Human Hep3B hepatocellular carcinoma cells (from ATCC at www.atcc.org/products/all/HB-8064.aspx) were grown in Eagle's minimum essential media (EMEM) supplemented with 10% heat-inactivated FBS, PenStrep (100 units/mL//[…]) and 2mM L-Glutamine.
(§2) Hep3B cells were transduced with either empty lentivirus (MOI=5) or lentivirus harboring CDP (MOI=5). Transduced cells were selected by growth in puromycin (4 μg/mL) to establish stable cell lines of Mock-Hep3B (empty lentivirus) and CDP-Hep3B (lentivirus containing CDP). FIG. 1 is a representative western blot showing the expression of Flag-tagged CDP in CDP-Hep3B cells (“CDP”) and not in Mock-Hep3B cells (“Mock”). […]
(§3) The growth and viability of Mock- and CDP-Hep3B cells were assessed by cell proliferation assay, using the tetrazolium salt 3-[4,5-di-methylthiazol-2yl]-2,5-diphenyl-tetrazolium bromide (MTT) reagent (resources.rndsystems.com/pdfs/datasheets/4890-025-k.pdf). […] Detergent reagent was then added to each well to solubilize the formazan dye prior to measuring the absorbance of each sample in a microplate reader at 570 nm.
(§4) Growth rates of stable cell lines were also obtained in the presence of Sorafenib. […] Cell viability was assessed using the MTT assay after 48 hours as described above.

The subject of the next assay is Mock-Hep3B cells. The assay can be described thus: MTT cell viability assay with sorafenib, Mock-Hep3B cells. The assay is classed as cell-based. Conditions: Homo sapiens, 12000 cells/well, 48 hours, n=3 independent experiments, read-out: calculated IC50 (cell viability). How it is done: as §1, §2, §3, §4

For `CNC(=O)c1cc(Oc2ccc(NC(=O)Nc3ccc(Cl)c(C(F)(F)F)c3)cc2)ccn1` [sorafenib, Sorafenib], the IC50 is 4.64 ± 0.16 µM in the assay with CDP-Hep3B cells and 4.76 ± 0.62 µM in the assay on Mock-Hep3B cells.
